Measured values as given in ChEMBL document CHEMBL1153522, “Spirocyclic delta opioid receptor agonists for the treatment of pain: discovery of N,N-diethyl-3-hydroxy-4-(spiro[chromene-2,4'-piperidine]-4-yl) benzamide (ADL5747)” (J Med Chem, 2009).

Columns and labels:
[1] = Systemic clearance in rat at 2.5 mg/kg, iv administered as single dose; type: ADME, organism-based; parameters: dose 2.5 mg/kg, route intravenous; settings: in vivo
[2] = Volume of distribution at steady state in rat at 2.5 mg/kg, iv administered as single dose; type: ADME, organism-based; parameters: dose 2.5 mg/kg, route intravenous; settings: in vivo, read-out: Vdss
[3] = Half life in rat at 2.5 mg/kg, iv administered as single dose; type: ADME, organism-based; parameters: dose 2.5 mg/kg, route intravenous; settings: in vivo
[4] = AUC (0 to infinity) in rat at 2.5 mg/kg, iv administered as single dose; type: ADME, organism-based; parameters: time infinity, dose 2.5 mg/kg, route intravenous; settings: plasma
[5] = Half life in rat at 10 mg/kg, po administered as single dose; type: ADME, organism-based; parameters: dose 10 mg/kg, route oral; settings: in vivo
[6] = AUC (0 to infinity) in rat at 10 mg/kg, po administered as single dose; type: ADME, organism-based; parameters: time infinity, dose 10 mg/kg, route oral; settings: plasma
[7] = Tmax in rat at 10 mg/kg, po administered as single dose; type: ADME, organism-based; parameters: dose 10 mg/kg, route oral; settings: in vivo
[8] = Cmax in rat at 10 mg/kg, po administered as single dose; type: ADME, organism-based; parameters: dose 10 mg/kg, route oral; settings: in vivo
[9] = Oral bioavailability in rat at 10 mg/kg administered as single dose; type: ADME, organism-based; settings: in vivo
[10] = Systemic clearance in Beagle dog at 1 mg/kg, iv administered as single dose; type: ADME, organism-based, Canis lupus familiaris; parameters: dose 1 mg/kg, route intravenous; settings: in vivo
[11] = Volume of distribution at steady state in Beagle dog at 1 mg/kg, iv administered as single dose; type: ADME, organism-based, Canis lupus familiaris; parameters: dose 1 mg/kg, route intravenous; settings: in vivo, read-out: Vdss
[12] = Half life in Beagle dog at 1 mg/kg, iv administered as single dose; type: ADME, organism-based, Canis lupus familiaris; parameters: dose 1 mg/kg, route intravenous; settings: in vivo
[13] = AUC (0 to infinity) in Beagle dog at 1 mg/kg, iv administered as single dose; type: ADME, organism-based, Canis lupus familiaris; parameters: time infinity, dose 1 mg/kg, route intravenous; settings: plasma
[14] = Half life in Beagle dog at 3 mg/kg, po administered as single dose; type: ADME, organism-based, Canis lupus familiaris; parameters: dose 3 mg/kg, route oral; settings: in vivo
[15] = AUC (0 to infinity) in Beagle dog at 3 mg/kg, po administered as single dose; type: ADME, organism-based, Canis lupus familiaris; parameters: time infinity, dose 3 mg/kg, route oral; settings: plasma
[16] = Tmax in Beagle dog at 3 mg/kg, po administered as single dose; type: ADME, organism-based, Canis lupus familiaris; parameters: dose 3 mg/kg, route oral; settings: in vivo
[17] = Cmax in Beagle dog at 3 mg/kg, po administered as single dose; type: ADME, organism-based, Canis lupus familiaris; parameters: dose 3 mg/kg, route oral; settings: in vivo
[18] = Oral bioavailability in Beagle dog at 3 mg/kg administered as single dose; type: ADME, organism-based, Canis lupus familiaris; settings: in vivo
[19] = species: Canis familiaris; experiment: Plasma concentration in Beagle dog after 15 to 30 mins; type: ADME, organism-based, Canis lupus familiaris; settings: in vivo
[20] = Metabolic stability in rat liver microsomes assessed as compound remaining after 30 mins; type: ADME, Microsome; settings: read-out: Stability
[21] = Metabolic stability in Beagle dog liver microsomes assessed as compound remaining after 30 mins; type: ADME, Canis lupus familiaris, Microsome; settings: read-out: Stability
[22] = Metabolic stability in human liver microsomes assessed as compound remaining after 30 mins; type: ADME, Microsome; settings: read-out: Stability
[23] = test system: CYP3A4; experiment: In vitro stability in presence of human CYP3A4 assessed as compound remaining at 1 uM after 1 hr; type: ADME; settings: read-out: Stability
[24] = test system: CYP2C19; experiment: In vitro stability in presence of human CYP2C19 assessed as compound remaining at 1 uM after 1 hr; type: ADME; settings: read-out: Stability
[25] = test system: CYP2D6; experiment: In vitro stability in presence of human CYP2D6 assessed as compound remaining at 1 uM after 1 hr; type: ADME; settings: read-out: Stability
[26] = AUC in rat plasma at 30 mg/kg, po administered as single dose after 6 hrs; type: ADME, organism-based; parameters: time < 6 hr, dose 30 mg/kg, route oral
[27] = test system: Rattus norvegicus; experiment: fAUC in rat plasma at 30 mg/kg, po administered as single dose after 6 hrs; type: ADME, organism-based; parameters: dose 30 mg/kg, route oral; settings: in vivo
[28] = AUC in rat brain raphe magnus at 30 mg/kg, po administered as single dose after 6 hrs; type: ADME, organism-based; parameters: dose 30 mg/kg, route oral; settings: read-out: Drug uptake

Compound `CCN(CC)C(=O)c1ccc(C2=CC3(CCNCC3)Oc3ccccc32)c(O)c1` [ADL-5747 FREE BASE] has a clearance [1] of 55 mL/min/kg, a Vd [2] of 18.1 L/kg and a half-life [3] of 318 min. It also gave an AUC(0-inf) [4] of 780 ng·h/mL, a half-life [5] of 294 min and an AUC(0-inf) [6] of 1150 ng·h/mL. It also gave a Tmax [7] of 1.3 h, a Cmax [8] of 246 ng/mL and a bioavailability [9] of 37.6%. The clearance [10] was 6.33 mL/min/kg, the Vd [11] was 5.1 L/kg and the half-life [12] was 732 min. For the same compound, the AUC(0-inf) [13] was 2640 ng·h/mL, the half-life [14] was 462 min and the AUC(0-inf) [15] was 4200 ng·h/mL. For the same compound, the Tmax [16] was 24 min, the Cmax [17] was 852 ng/mL and the bioavailability [18] was 54.5%. For the same compound, the Cp [19] was 808 ng/mL, the remaining at 0.5 h [20] was 59.7% and the remaining at 0.5 h [21] was 63.9%. The remaining at 0.5 h [22] was 94.5%, the remaining at 1 h, 1 µM [23] was 22.5% and the remaining at 1 h, 1 µM [24] was 78.4%. It also gave a remaining at 1 h, 1 µM [25] of 63.2%, an AUC at 6 h [26] of 4610 ng·h/mL and a fAUC [27] of 990 ng·h/mL. For the same compound, the AUC at 6 h [28] was 105 ng·h/mL.
